How the values were obtained:
Assay in all cases: relative viability (nuclei count vs DMSO), 5 days (fraction); higher = more cells survive
AZD1208 + Linsitinib = compound: N[C@@H]1CCCN(c2c(/C=C3\SC(=O)NC3=O)cccc2-c2ccccc2)C1 [AZD1208] + C[C@]1(O)C[C@@H](c2nc(-c3ccc4ccc(-c5ccccc5)nc4c3)c3c(N)nccn32)C1 [Linsitinib] (partner 1 µM)
In short: (§1)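 One day after seeding in 1536-well plates, lung cancer cell lines were dosed by pin tool. Dosing was either single-drug or a fixed anchor-drug dose plus five library-drug doses (not always all listed) in √10 steps. After 5 days, nuclei were stained in one fix-and-stain step and counted on 4× images, and relative viability is the nuclei count of treated wells over that of vehicle wells, given as the median of duplicate plates.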

XMD14-99 + Tozasertib = compound: CN1CCN(CC1)C2=CC(=C(C=C2)NC3=NC(=C(S3)C(=O)C4=C(C=CC=C4Cl)Cl)N)OC [XMD14-99] + Cc1cc(Nc2cc(N3CCN(C)CC3)nc(Sc3ccc(NC(=O)C4CC4)cc3)n2)n[nH]1 [Tozasertib] (partner 0.1 µM)
In short: as §1

AZD1208 + Palbociclib = compound: N[C@@H]1CCCN(c2c(/C=C3\SC(=O)NC3=O)cccc2-c2ccccc2)C1 [AZD1208] + CC(=O)c1c(C)c2cnc(Nc3ccc(N4CCNCC4)cn3)nc2n(C2CCCC2)c1=O [Palbociclib] (partner 0.5 µM)
In short: as §1

AZD1208 + Navitoclax = compound: N[C@@H]1CCCN(c2c(/C=C3\SC(=O)NC3=O)cccc2-c2ccccc2)C1 [AZD1208] + CC1(C)CCC(c2ccc(Cl)cc2)=C(CN2CCN(c3ccc(C(=O)NS(=O)(=O)c4ccc(N[C@H](CCN5CCOCC5)CSc5ccccc5)c(S(=O)(=O)C(F)(F)F)c4)cc3)CC2)C1 [Navitoclax] (partner 0.5 µM)
In short: as §1

| Cell Line | relative viability (AZD1208 + Linsitinib; first compound 0.08 µM) | relative viability (AZD1208 + Linsitinib; first compound 0.253 µM) | relative viability (AZD1208 + Linsitinib; first compound 0.8 µM) | relative viability (AZD1208 + Linsitinib; first compound 2.53 µM) | relative viability (AZD1208 + Linsitinib; first compound 8 µM) | relative viability (XMD14-99 + Tozasertib; first compound 0.08 µM) | relative viability (XMD14-99 + Tozasertib; first compound 0.8 µM) | relative viability (XMD14-99 + Tozasertib; first compound 2.53 µM) | relative viability (XMD14-99 + Tozasertib; first compound 8 µM) | relative viability (AZD1208 + Palbociclib; first compound 0.08 µM) | relative viability (AZD1208 + Palbociclib; first compound 0.253 µM) | relative viability (AZD1208 + Palbociclib; first compound 0.8 µM) | relative viability (AZD1208 + Palbociclib; first compound 2.53 µM) | relative viability (AZD1208 + Palbociclib; first compound 8 µM) | relative viability (AZD1208 + Navitoclax; first compound 0.08 µM) | relative viability (AZD1208 + Navitoclax; first compound 0.253 µM) | relative viability (AZD1208 + Navitoclax; first compound 0.8 µM) | relative viability (AZD1208 + Navitoclax; first compound 2.53 µM) | relative viability (AZD1208 + Navitoclax; first compound 8 µM) |
| --- | --- | --- | --- | --- | --- | --- | --- | --- | --- | --- | --- | --- | --- | --- | --- | --- | --- | --- | --- |
| NCI-H1975 | 0.991 | 1 | 0.911 | 0.981 | 0.975 | 0.693 | 0.733 | 0.656 | 0.281 | 0.56 | 0.686 | 0.535 | 0.591 | 0.403 | 1.19 | 1.05 | 1.14 | 1.01 | 1.09 |
| CAL-12T | 0.721 | 1.13 | 0.761 | 0.86 | 0.909 | 0.331 | 0.331 | 0.307 | 0.3 | 0.501 | 0.483 | 0.569 | 0.434 | 0.448 | 1.28 | 1.39 | 1.08 | 1.28 | 0.956 |
| NCI-H1623 |  |  |  |  |  | 0.429 | 0.429 | 0.38 | 0.394 |  |  |  |  |  |  |  |  |  |  |
| HCC-44 | 0.634 | 0.676 | 0.665 | 0.672 | 0.593 | 1 | 0.921 | 0.929 | 0.605 | 1.01 | 0.941 | 0.976 | 0.968 | 1.02 | 0.91 | 1.07 | 0.94 | 1.04 | 0.899 |
| EKVX | 0.996 | 1.19 | 0.917 | 0.87 | 1.11 | 0.368 | 0.378 | 0.392 | 0.343 | 0.383 | 0.41 | 0.336 | 0.332 | 0.419 | 0.931 | 0.995 | 0.754 | 0.933 | 0.944 |
| NCI-H1651 | 0.912 | 0.619 | 0.758 | 0.852 | 0.83 | 0.767 | 0.645 | 0.657 | 0.556 | 0.527 | 0.535 |  | 0.473 | 0.459 | 0.879 | 0.929 | 0.858 | 0.887 | 0.774 |
| NCI-H1944 | 1.14 | 1.19 | 1.01 | 0.953 | 0.82 | 0.226 | 0.256 | 0.255 | 0.235 | 0.314 | 0.304 | 0.295 | 0.311 | 0.251 | 1.05 | 1.01 | 0.977 | 1.01 | 0.832 |
| NCI-H1703 | 0.751 | 0.56 | 0.602 | 0.651 | 0.508 |  |  |  |  |  |  |  |  |  | 0.98 | 1.19 | 0.88 | 0.878 | 0.783 |
| Calu-6 | 0.86 | 1.03 | 0.919 | 0.967 | 0.872 |  |  |  |  |  |  |  |  |  | 0.737 | 0.916 | 0.906 | 0.833 | 0.822 |
| EBC-1 | 0.981 | 1.08 | 0.821 | 0.905 | 0.764 |  |  |  |  |  |  |  |  |  | 0.317 | 0.326 | 0.297 | 0.334 | 0.298 |
| A-427 | 1.12 | 1.12 | 1 | 1.17 | 1.02 | 0.224 | 0.227 | 0.201 | 0.188 | 0.546 | 0.548 | 0.495 | 0.551 | 0.527 | 0.936 | 0.95 | 0.892 | 0.876 | 0.863 |
| NCI-H2405 | 0.8 | 0.789 | 0.737 | 0.883 | 0.853 | 0.758 | 0.713 | 0.701 | 0.501 | 0.497 | 0.536 | 0.505 | 0.51 | 0.418 | 0.78 | 0.792 | 0.84 | 0.791 | 0.789 |
| NCI-H1355 | 0.846 | 0.921 | 0.718 | 0.737 | 0.695 | 0.54 | 0.519 | 0.408 | 0.324 | 0.396 | 0.37 | 0.372 | 0.385 | 0.318 | 0.963 | 0.861 | 0.785 | 0.932 | 0.853 |
| NCI-H358 | 0.675 | 0.604 | 0.564 | 0.71 | 0.605 | 0.0889 | 0.102 | 0.0882 | 0.0609 | 0.14 | 0.149 | 0.109 | 0.14 | 0.14 |  |  |  |  |  |
| RERF-LC-KJ | 0.892 | 0.883 | 0.815 | 0.794 | 0.702 | 0.507 | 0.464 | 0.408 | 0.374 | 1.05 | 1.09 | 1 | 1.02 | 0.802 | 1.03 | 0.908 | 0.959 | 0.921 | 0.662 |
| NCI-H23 | 0.453 | 0.539 | 0.462 | 0.434 | 0.461 | 0.453 | 0.352 | 0.279 | 0.263 | 0.491 | 0.478 | 0.462 | 0.477 | 0.356 | 0.843 | 1.18 | 0.721 | 0.712 | 0.646 |
| HOP-62 | 1.06 | 0.843 | 1.05 | 1.11 | 0.623 | 0.375 | 0.341 | 0.351 | 0.241 | 0.483 | 0.503 | 0.431 | 0.439 | 0.469 | 1.05 | 0.886 | 1.05 | 0.969 | 1.07 |
| HARA | 0.948 | 1.02 | 0.899 | 0.964 | 0.877 | 0.122 | 0.0974 | 0.258 | 0.0954 | 0.268 | 0.258 | 0.246 | 0.291 | 0.261 | 1.13 | 1.16 | 1.2 | 1.03 | 1.15 |
| PC-14 | 0.942 | 1.12 | 0.977 | 1 | 0.914 | 0.584 | 0.572 | 0.599 | 0.368 | 0.511 | 0.59 | 0.502 | 0.532 | 0.475 | 1.02 | 0.988 | 1.01 | 1.02 | 1 |
